Patent US20080119521A1, “Butyrlcholinesterase Selective Inhibitors” (priority 2004, published 2008)
Where two headings read alike, the source gives them in different places.

Assays:
[1] = tested on: human neuroblastoma cell line SH-SY5Y; assay: Toxicity measurement, LDH release cytotoxicity; type: cell-based; conditions: SH-SY5Y cells, 24 hours exposure
Description: The cytotoxicity effect of the molecules was tested in the human neuroblastoma cell line SH-SY5Y. These cells were cultured in 96-well plates in a 1:1 mixture of Ham's F12 nutrients and essential medium (MEM), supplemented with 10% fetal bovine serum and 1% penicillin/streptomycin, and grown in a 5% CO2 humidified incubator at 37° C.
The cells were plated at 10^4 cells for each well, at least, 48 hours before the toxicity measure. Cells were exposed for 24 hours to the compounds at different concentrations (from 10^−5 to 10^−9), quantitative assessment of cell death was made by measurement of the intracellular enzyme lactate dehydrogenase (LDH) (citotoxicity detection kit, Roche). The quantity of LDH was measured and evaluated in a microplate reader Anthos 2010, at 492 and 620 nm. Controls were taken as 100% viability.

BuChE from human serum = target: T1, BuChE from human serum (Homo sapiens, UniProt P06276); assay: Butyrylcholinesterase (BuChE) inhibition, Ellman colorimetric method; type: biochemical
T1 construct: 0.1 unit/ml BuChE from human serum; from tissue; host or cells: human serum
Description: Butyrylcholinesterase (BuChE) Inhibition (from Human Serum)
BuChE inhibitory activity was evaluated at 30° C. by the colorimetric method reported by Ellman [Ellman, G. L.; Courtney, K. D.; Andres, B.; Featherstone, R. M. Biochem. Pharmacol. 1961, 7, 88-95]. The assay solution consisted of 0.1 unit/ml BuChE from human serum, 0.1 M sodium phosphate buffer pH 8, 0.3 mM 5,5′-dithiobis (2-nitrobenzoic acid) (DTNB, Ellman's reagent), and 0.5 mM butyrylthiocholine iodide as the substrate of the enzymatic reaction. Enzyme activity was determined by measuring the absorbance at 405 nm during 5 minutes with a microplate reader Digiscan 340T. The tested compounds were preincubated with the enzyme for 10 minutes at 30° C. The reaction rate was calculated with, at least, triplicate measurements. The IC50 is defined as the concentration of each compound that reduces a 50% the enzymatic activity with respect to that without inhibitors.

AChE peripheral site = AChE peripheral site (Homo sapiens, UniProt P22303); assay: Propidium competition, fluorescence; type: binding; conditions: 5 μM AChE incubated at least 6 hours, 20 μM propidium iodide, 1 mM Tris/HCl pH 8.0
Description: Fluorescence was measured in a Fluostar optima plate reader (BMG). Measurements were carried out in 100 μl solution volume, in 96-well plates. The buffer used was 1 mM Tris/HCl, pH 8.0. 5 μM AchE was incubated, at least 6 hours, with the molecules at different concentrations. 20 μM propidium iodide was added 10 min before fluorescence measurement. The excitation wavelength was 485 nm, and that of emission, 620 nm.

[2] = target: T2, AChE from bovine erythrocytes (Bos taurus, UniProt P23795); assay: Acetylcholinesterase (AChE) inhibition, Ellman colorimetric method; type: biochemical
T2 construct: 0.2 unit/ml AChE (Sigma Chemical Co. from bovine erythrocytes); purchased Sigma Chemical Co; host or cells: bovine erythrocytes
T2 sequence (P23795 31-614 isoform P23795-2 limits assumed): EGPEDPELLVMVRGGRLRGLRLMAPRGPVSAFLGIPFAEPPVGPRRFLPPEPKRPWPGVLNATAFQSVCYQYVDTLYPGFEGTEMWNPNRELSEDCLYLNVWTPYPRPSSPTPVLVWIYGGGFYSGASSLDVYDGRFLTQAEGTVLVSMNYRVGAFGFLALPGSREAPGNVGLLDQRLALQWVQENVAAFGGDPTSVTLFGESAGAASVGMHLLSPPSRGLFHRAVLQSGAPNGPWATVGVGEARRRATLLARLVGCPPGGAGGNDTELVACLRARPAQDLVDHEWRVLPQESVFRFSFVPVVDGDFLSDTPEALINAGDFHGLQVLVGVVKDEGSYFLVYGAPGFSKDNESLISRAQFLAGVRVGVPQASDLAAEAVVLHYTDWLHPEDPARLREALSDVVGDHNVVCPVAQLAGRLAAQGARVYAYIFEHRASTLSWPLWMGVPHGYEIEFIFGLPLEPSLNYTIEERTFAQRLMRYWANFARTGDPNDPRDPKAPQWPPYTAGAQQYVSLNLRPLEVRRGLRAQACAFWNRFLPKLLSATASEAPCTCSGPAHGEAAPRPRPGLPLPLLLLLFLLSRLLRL
Description: Acetylcholinesterase (AChE) Inhibition (from Bovine Erythrocytes)
AChE inhibitory activity was evaluated at 30° C. by the colorimetric method reported by Ellman [Ellman, G. L.; Courtney, K. D.; Andres, B.; Featherstone, R. M. Biochem. Pharmacol. 1961, 7, 88-95]. The assay solution consisted of 0.1 M phosphate buffer pH 8, 0.3 mM 5,5′-dithiobis (2-nitrobenzoic acid) (DTNB, Ellman's reagent), 0.2 unit/ml AChE (Sigma Chemical Co. from bovine erythrocytes), and 0.5 mM acetylthiocholine iodide as the substrate of the enzymatic reaction. The compounds tested were added to the assay solution and pre incubated with the enzyme for 5 min at 30° C. After that period, the substrate was added. The absorbance changes at 405 nm were recorded for 5 min with a microplate reader Digiscan 340T, the reaction rates were compared, and the percent inhibition due to the presence of test compounds was calculated. The reaction rate was calculated with, at least, triplicate measurements, and the percent inhibition due to the presence of test compound was calculated relative to the compound-free control. The compound concentration producing 50% of AChE inhibition (IC50) was determined.

T1 sequence (P06276 29-602): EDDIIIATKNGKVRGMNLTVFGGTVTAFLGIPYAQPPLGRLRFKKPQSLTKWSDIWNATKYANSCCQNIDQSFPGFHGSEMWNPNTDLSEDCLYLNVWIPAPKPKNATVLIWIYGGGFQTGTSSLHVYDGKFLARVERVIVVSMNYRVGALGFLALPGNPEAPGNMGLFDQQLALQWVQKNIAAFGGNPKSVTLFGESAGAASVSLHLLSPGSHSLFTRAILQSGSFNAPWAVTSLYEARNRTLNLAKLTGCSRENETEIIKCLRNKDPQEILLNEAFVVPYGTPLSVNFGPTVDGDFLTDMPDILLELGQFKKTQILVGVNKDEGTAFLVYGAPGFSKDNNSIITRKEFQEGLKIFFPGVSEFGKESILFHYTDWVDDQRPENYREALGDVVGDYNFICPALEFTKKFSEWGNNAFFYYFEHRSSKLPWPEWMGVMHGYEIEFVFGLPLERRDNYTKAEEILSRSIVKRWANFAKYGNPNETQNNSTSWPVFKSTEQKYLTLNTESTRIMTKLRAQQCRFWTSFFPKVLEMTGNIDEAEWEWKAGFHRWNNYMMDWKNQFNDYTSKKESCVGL
Chain of AChE peripheral site (P22303 32-614): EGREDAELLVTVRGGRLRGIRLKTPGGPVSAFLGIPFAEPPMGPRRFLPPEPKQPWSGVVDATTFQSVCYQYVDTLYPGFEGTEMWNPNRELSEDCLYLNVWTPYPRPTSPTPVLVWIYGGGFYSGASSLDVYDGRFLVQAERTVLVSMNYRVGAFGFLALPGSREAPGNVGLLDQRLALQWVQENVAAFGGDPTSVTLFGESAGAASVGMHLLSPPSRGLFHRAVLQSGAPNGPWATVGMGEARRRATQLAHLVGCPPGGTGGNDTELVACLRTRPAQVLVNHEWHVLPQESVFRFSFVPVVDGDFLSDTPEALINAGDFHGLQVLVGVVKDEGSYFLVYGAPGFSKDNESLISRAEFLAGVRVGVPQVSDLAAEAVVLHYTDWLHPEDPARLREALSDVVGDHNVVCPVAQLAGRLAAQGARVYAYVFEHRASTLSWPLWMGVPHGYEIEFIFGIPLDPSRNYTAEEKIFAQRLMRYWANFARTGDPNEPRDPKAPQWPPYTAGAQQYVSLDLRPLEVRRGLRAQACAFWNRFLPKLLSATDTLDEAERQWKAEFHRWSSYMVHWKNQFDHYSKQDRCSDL

SMILES: O=C(CCCc1c[nH]c2ccccc12)NCCC1CCN(Cc2ccccc2)CC1 [Compound 6, N-[2-(1-Benzyl-piperidin-4-yl)-ethyl]-4-(1H-indol-3-yl)-butyramide]
- Toxicity [1]: >100 µM
- IC50 (BuChE from human serum): 5 nM
- Propidium competition (AChE peripheral site): 100 µM
- IC50 [2]: 300 nM

SMILES: O=C(NCCC1CCN(Cc2ccccc2)CC1)OCCc1c[nH]c2ccccc12 [Compound 7, [2-(1-Benzyl-piperidin-4-yl)-ethyl]-carbamic acid 2-(1H-indol-3-yl)-ethyl ester]
- Toxicity [1]: >100 µM
- IC50 (BuChE from human serum; BuChE from human serum, 30° C., pH 8, 10 min preincubation, butyrylthiocholine iodide substrate, read-out: IC50 BuChE): 30 nM
- IC50 ([2]; AChE from bovine erythrocytes, 30° C., pH 8, 5 min preincubation, acetylthiocholine iodide substrate, read-out: IC50 AChE): 1000 nM

SMILES: Cc1[nH]c2ccccc2c1CC(=O)NCCC1CCN(Cc2ccccc2)CC1 [Compound 3, N-[2-(1-Benzyl-piperidin-4-yl)-ethyl]-2-(2-methyl-1H-indol-3-yl)-acetamide]
- Toxicity [1]: >100 µM
- IC50 (BuChE from human serum): 2 nM
- Propidium competition (AChE peripheral site): 100 µM
- IC50 [2]: 200 nM

SMILES: O=C(Cc1c[nH]c2ccccc12)NCCC1CCN(Cc2ccccc2)CC1 [Compound 1, N-[2-(1-Benzyl-piperidin-4-yl)-ethyl]-2-(lH-indol-3-yl)-acetamide]
- Toxicity [1]: >100 µM
- IC50 (BuChE from human serum): 0.8 nM
- Propidium competition (AChE peripheral site): 1 µM
- IC50 [2]: 200 nM

SMILES: Cn1cc(CC(=O)NCCC2CCN(Cc3ccccc3)CC2)c2ccccc21 [Compound 2, N-[2-(1-Benzyl-piperidin-4-yl)-ethyl]-2-(1-methyl-1H-indol-3-yl)-acetamide]
- Toxicity [1]: >100 µM
- IC50 (BuChE from human serum): 1 nM
- Propidium competition (AChE peripheral site): 100 µM
- IC50 [2]: 400 nM

SMILES: O=C(CCc1c[nH]c2ccccc12)NCCC1CCN(Cc2ccccc2)CC1 [Compound 5, N-[2-(1-Benzyl-piperidin-4-yl)-ethyl]-3-(1H-indol-3-yl)-propionamide]
- Toxicity [1]: >100 µM
- IC50 (BuChE from human serum): 0.05 nM
- selectivity with respect to AChE (BuChE from human serum; BuChE versus AChE): 5 orders of magnitude
- Propidium competition (AChE peripheral site): 100 µM
- IC50 [2]: 2000 nM

SMILES: O=C(Cc1c[nH]c2ccc(Br)cc12)NCCC1CCN(Cc2ccccc2)CC1 [Compound 4, N-[2-(1-Benzyl-piperidin-4-yl)-ethyl]-2-(5-bromo-1H-indol-3-yl)-acetamide]
- Toxicity [1]: >100 µM
- IC50 (BuChE from human serum): 0.25 nM
- Propidium competition (AChE peripheral site): 1 µM
- IC50 [2]: 250 nM
